Measured values as given in US12133486B2, “Methods of propagation of arbuscular mycorrhizal fungi (AMF) and uses thereof” (Terra Microbes, LLC, priority 2021, dated 2024).

Test system: AM fungi (mixed INVAM inoculum)
Experiment: Pot study: AM fungal spore production in steamed ML soil/sand with INVAM inoculum, planted or unplanted
Format: in vivo
Settings: for AM Fungal Spores per 100 g soil: 80 ppm treatment P, end of study at 66 days, start 408 spores per 100 g; for increase in spore population from the start of the study: planted with yellow sweet clover; for increase in spore population from the start of the study / increase in spore population at 66 days over the levels at time 0: 66 days vs 408 spores per 100 g at time 0
From the text: This Example is an un-replicated study to examine whether PO3^−3 (phosphite) impacts spore production and infection rate of AM fungi. The fungi were a mixed inoculum source from the University of West Virginia (UWV). UWV holds and maintains the International Culture Collection of (Vesicular) Arbuscular Mycorrhizal Fungi (INVAM). The plant used was yellow blossom sweet clover (Melilotus officinalis). All pots were inoculated, but only half were planted. Each Experimental unit was a 20 cm pot. Substrate for the units were a soil, sand, and inoculum mixture.
A known AM fungal inoculum was obtained from The International Culture Collection of (Vesicular) Arbuscular Mycorrhizae (invam.wvu.edu, Director Matt Kasson) maintained at the University of West Virginia in Morgantown, WV, US. A mixed culture of four AM fungal species was ordered. The mixture contained 250 ml of soil inoculum of each species. The total weight the entire mixed sample was 1345 grams and thus a bulk density of the sample of 1.345 g/ml. The material received contained the following species: Claroideoglomus etunicatum., Accession number AZ 201C (initially described by Becker W. N. and Gerdemann J. W., Mycotaxon, 6:29, 1977, as Glomus etunicatum.), spores were orange to red-brown, globose, subglobose; 60-160 μm diameter; mean 129 μm (n=120); Rhizophagus clarus, Accession number AZ 151D (initially described by Schenck, N. Mycologia, 71:182, 1979, as Glomus clarum.), spores are from white to yellow brown with many pale yellow to pale yellow brown, 100 to 260 μm diameter, mean 182 μm (n=120); Rhizophagus intraradices, Accession number AZ 123 (initially described by Schenck, N. Mycologia, 74:78, 1982, as Glomus intraradices), spores were white, pale cream, to yellow, brown, sometimes with a green hint, globose, subglobose, irregular. 40 to 140 μm diameter, mean 93.3 (n=170); and Septoglomus deserticola, Accession number CA 113 (initially described by Trappe J. Bluss and Menge J., 1984, Mycotaxon, 20:123, 1984, as Glomus deserticola), spores are orange-brown to dark red brown, most are reddish brown, globose to subglobose, sometimes irregular, 60 to 140 μm diameter.
The present example was designed as a pot experiment where each pot was a treatment, the treatments being untreated controls, units treated with phosphate, and units treated with phosphite. All pots were a mixture of steamed ML soil, sand, and inoculum. Control units (pots) received no other treatment. Phosphate pots were treated with K2HPO4. Phosphite pots were treated with an equivalent molarity (concentration) of P as K2HPO3.
Half of the pots (a control, phosphate, and phosphite treatments) were planted with yellow sweet clover seed. The other half of the pots (also a control, phosphate, and phosphite treatment) were not planted with any plants.
Phosphate and phosphite were added to the soil materials such that the phosphorus in each would constitute 80 mg per kg of soil (Table 6). This is more than was added to the field experimental plots described in Example 3. However, the results of that experiment (Example 4) did show a response of the AM fungi to phosphite. In Example 4, phosphorous either as phosphate or phosphite, was added at 61.53 ppm. In Example 4, there was no apparent inhibition of infection or spore production by addition of phosphorus. The level of P was raised to 80 mg per kg in this example to accentuate the impact of added P on the AM fungi. Each pot described in Table 6 contained 3.022.5 g of soil material (soil plus sand and inoculum).
The various treatment substrates, i.e., soil, sand, and inoculum, were mixed in batches. The control batch was established and mixed for the control treatments. Likewise, the phosphate and phosphite batches were mixed, respectively, for all phosphate and phosphite treatments. The treatments salts (K2HPO4 and K2HPO3) were added as 400 ml aqueous solution (chemical in distilled water to 400 ml). […]

[1] = YBSC (yellow sweet clover) plants

| SMILES | AM Fungal Spores per 100 g soil [1] | AM Fungal Spores per 100 g soil (no plants) | increase in spore population from the start of the study | mature brownish reddish spores (planted, 66 days) | small, immature spores (planted, 66 days) | light colored to white spores (unplanted, 66 days) | mature brownish reddish spores (unplanted, 66 days) | small, immature spores (unplanted, 66 days) | increase in spore population at 66 days over the levels at time 0 (unplanted) |
| --- | --- | --- | --- | --- | --- | --- | --- | --- | --- |
| OP(O)O [PO3, dipotassium phosphite] | 4,598 per 100 g soil | 7,301 per 100 g soil | 1,127% | 3,480 per 100 g soil | 217 per 100 g soil | 1,429 spores per 100 g soil | 4,287 per 100 g soil | 1,585 per 100 g soil | 1,789% |
| O=P([O-])([O-])O.[K+].[K+] [PO4, dipotassium phosphate] | 7,146 per 100 g soil | 5,220 per 100 g soil | 1,751% | 2,827 per 100 g soil | 3,604 per 100 g soil |  | 2,237 per 100 g soil | 2,548 per 100 g soil | 1,279% |
